The values that follow come from ChEMBL document CHEMBL3797118, “New Colchicine-Derived Triazoles and Their Influence on Cytotoxicity and Microtubule Morphology” (ACS Med Chem Lett, 2016).

Assay [1] deals with MDA-MB-231. As to the kind of experiment: Inhibition of microtubule network formation in human MDA-MB-231 cells assessed as centrosome declustering at 100 nM after 24 hrs by DAPI staining based immunofluorescence microscopic analysis. It is filed as cell-based.
Assay [2] relates to Jurkat. As to the kind of experiment: Cytotoxicity against human Jurkat cells after 48 hrs by Celltiter-Glo luminescent cell viability assay. It is filed as functional, cell-based.
Assay [3] relates to HeLa. As to the kind of experiment: Cytotoxicity against human HeLa cells after 48 hrs by Celltiter-Glo luminescent cell viability assay. It counts as functional, cell-based. Background: In ATP-based viability assays light output follows the ATP content of the culture.
A short description of assay [4]: Cytotoxicity against human SKMES1 cells after 48 hrs by Celltiter-Glo luminescent cell viability assay. It counts as functional, cell-based. Particulars: SK-MES-1, 48 h.
The test system of assay [5] is A549. Nature of the assay: Cytotoxicity against human A549 cells after 48 hrs by Celltiter-Glo luminescent cell viability assay. It counts as functional, cell-based. The settings on record: A549, 48 h.
For assay [6], the system named is MDA-MB-231. As to the kind of experiment: Inhibition of microtubule network formation in human MDA-MB-231 cells at 100 nM after 24 hrs by DAPI staining based immunofluorescence microscopic analysis. It counts as cell-based.
A short description of assay [7]: Cytotoxicity against human THP1 cells after 24 hrs by Celltiter-Glo luminescent cell viability assay. Particulars: THP-1, 24 h. It counts as functional, cell-based.
Assay [8] deals with H1975. As to the kind of experiment: Inhibition of microtubule network formation in human H1975 cells assessed as centrosome declustering at 500 nM after 24 hrs by DAPI staining based immunofluorescence microscopic analysis. It is filed as cell-based.

pIC50: −log10 of the molar value. The source made the active and inactive calls. The calls are words filed in the database; no cut-off is given here.

In the case of `COc1cc2c(c(OC)c1OC)-c1ccc(OC)c(=O)cc1[C@@H](n1cc(COC(=O)[C@H](Cc3ccccc3)NC(=O)OC(C)(C)C)nn1)CC2`, the inhibition result in assay [1], in assay [6] and in assay [8] was “Active” each time. Also, the pIC50 in assay [2] was 7.82; in assay [3] (read-out: IC50), 7.15; in assay [4] it was 7.41; in assay [5], 7.13; in assay [7], 8.39.

In turn, `COc1cc2c(c(OC)c1OC)-c1ccc(OC)c(=O)cc1[C@@H](N=[N+]=[N-])CC2` had a pIC50 in assay [7] of 7.68.

In the case of `COc1cc2c(c(OC)c1OC)-c1ccc(OC)c(=O)cc1[C@@H](n1cc(COC(=O)CCCCCNC(=O)OC(C)(C)C)nn1)CC2`, the pIC50 in assay [2] is 8.03; in assay [7], 8.27.

In the case of `COc1cc2c(c(OC)c1OC)-c1ccc(OC)c(=O)cc1[C@@H](n1cc(CNC(=O)OC(C)(C)C)nn1)CC2`, the pIC50 in assay [7] is 7.64.

Consider `COc1cc2c(c(OC)c1OC)-c1ccc(OC)c(=O)cc1[C@@H](n1cc(COC(=O)[C@H](Cc3ccccc3)NC(C)=O)nn1)CC2`, for which the figures for the pIC50 in assay [2] and in assay [7] were 7.07 and 7.59, respectively.

In assay [7], `COc1cc2c(c(OC)c1OC)-c1ccc(OC)c(=O)cc1[C@@H](n1cc(COC(=O)[C@H](CC(C)C)NC(=O)OC(C)(C)C)nn1)CC2` showed a pIC50 of 8.18.

`COc1cc2c(c(OC)c1OC)-c1ccc(OC)c(=O)cc1[C@@H](n1cc(COC(=O)[C@H](CCSC)NC(=O)OC(C)(C)C)nn1)CC2` had a pIC50 in assay [7] of 7.97.

On to `COc1cc2c(c(OC)c1OC)-c1ccc(OC)c(=O)cc1[C@@H](n1cc(COC(=O)[C@@H](N)Cc3ccccc3)nn1)CC2`, for which the pIC50 in assay [2] was 7.60; in assay [7] it was 7.62.

As to `COc1cc2c(c(OC)c1OC)-c1ccc(OC)c(=O)cc1[C@@H](n1cc(COC(=O)[C@@H](NC(=O)OC(C)(C)C)C(C)C)nn1)CC2`, the pIC50 in assay [7] is 8.09.

For `COc1cc2c(c(OC)c1OC)-c1ccc(OC)c(=O)cc1[C@@H](n1cc(CCC(=O)OCc3cccc(F)c3)nn1)CC2`, the figures for the pIC50 in assay [2] and in assay [7] were 8.31 and 8.03, respectively.

For the compound `COc1cc2c(c(OC)c1OC)-c1ccc(OC)c(=O)cc1[C@@H](n1cc(COC(=O)[C@H](Cc3ccccc3)NC(=O)OCc3ccccc3)nn1)CC2`, the negative logarithm of the IC50 (pIC50) is 7.67 in assay [2] and 7.63 in assay [7].

As for `COc1cc2c(c(OC)c1OC)-c1ccc(OC)c(=O)cc1[C@@H](n1cc(CCCCC(=O)OCc3ccccc3)nn1)CC2`, the pIC50 in assay [2] was 7.78; in assay [7], 7.45.

In turn, `COc1cc2c(c(OC)c1OC)-c1ccc(OC)c(=O)cc1[C@@H](n1cc(C(=O)OCc3ccccc3)nn1)CC2` showed a pIC50 in assay [7] of 6.85.

As to `CC(=O)O[C@H]1C(=O)[C@@]2(C)[C@H]([C@H](OC(=O)c3ccccc3)[C@]3(O)C[C@H](OC(=O)[C@H](O)[C@@H](NC(=O)c4ccccc4)c4ccccc4)C(C)=C1C3(C)C)[C@]1(OC(C)=O)CO[C@@H]1C[C@@H]2O` [PACLITAXEL], the pIC50 in assay [3] was 7.72; in assay [4] it was 7.87; in assay [5] it was 7.88. Moreover, the inhibition entry in assay [6] was “inactive”.

With `COc1cc2c(c(OC)c1OC)-c1ccc(OC)c(=O)cc1[C@@H](n1cc(CCC(=O)OCc3ccc(F)cc3)nn1)CC2`, the pIC50 is 8.54 in assay [2]; 8.31 in assay [3] (read-out: IC50); 8.46 in assay [4]; 8.26 in assay [5]; 8.29 in assay [7]. Moreover, in assay [6], the inhibition result is “Active”.

Turning to `COc1cc2c(c(OC)c1OC)-c1ccc(OC)c(=O)cc1[C@@H](n1cc(COC(=O)CCNC(=O)OC(C)(C)C)nn1)CC2`, the pIC50 in assay [2] is 8.30; in assay [3] (read-out: IC50), 7.70; in assay [4], 8.02; in assay [5], 7.60; in assay [7], 8.24. Besides, in assay [6], the inhibition result was “Active”.

Consider `COc1cc2c(c(OC)c1OC)-c1ccc(OC)c(=O)cc1[C@@H](n1cc(CCC(=O)OCc3ccccc3F)nn1)CC2`, for which the pIC50 in assay [2] is 8.01; in assay [7] it was 7.90.

In the case of `COc1cc2c(c(OC)c1OC)-c1ccc(OC)c(=O)cc1[C@@H](NC(C)=O)CC2` [COLCHICINE], the pIC50 in assay [3] (read-out: IC50) is 7.66; in assay [4], 7.73; in assay [5], 7.62; in assay [7], 7.69. The inhibition entry in assay [6] was “Active”.

`CC[C@H](C)[C@H](NC(=O)OC(C)(C)C)C(=O)OCc1cn([C@H]2CCc3cc(OC)c(OC)c(OC)c3-c3ccc(OC)c(=O)cc32)nn1` showed a pIC50 in assay [7] of 7.76.

As to `COc1cc2c(c(OC)c1OC)-c1ccc(OC)c(=O)cc1[C@@H](n1cc(COC(=O)[C@H](Cc3c[nH]c4ccccc34)NC(=O)OC(C)(C)C)nn1)CC2`, the pIC50 in assay [7] was 8.14.

Regarding `COc1cc2c(c(OC)c1OC)-c1ccc(OC)c(=O)cc1[C@@H](n1cc(CCC(=O)OCc3ccccc3)nn1)CC2`, in assay [7], the pIC50 was 7.51.

As a reminder, the pIC50 is −log10 of the IC50, conventionally taken in molar units.
